{
  "source": "patent US4761398A",
  "about": "“Method of inducing birds to molt” (Embrex, Inc., priority 1986, dated 1988)",
  "key": {"[1]": {"system": "single combed White Leghorn hens", "experiment": "Mortality", "assay_type": "in vivo", "source_text": "(§1) After the two week pre-molt adjustment period, the hens were randomly assigned to each of eight different groups. These treatment groups were as follows: (1) control, (2) forced molt, (3) chemical molt-injected, (4) vehicle control-injected, (5) chemical molt-microcapsules A, (6) vehicle control-microcapsules A, (7) chemical molt-microcapsules B, and (8) vehicle control-microcapsules B.\n(§2) [D-Trp^6 ]LHRH was used as the LHRH receptor ligand for the chemical molt groups. The \"chemical molt-injected\" group received intramuscular (breast) injections of 25 micrograms/day of [D-Trp^6 ]LHRH for 10 consecutive days beginning on day 14. Alternate pectoral (breast) areas were injected each day. The \"chemical molt-microcapsule\" groups received a single intramuscular (breast) injection of microencapsulated [D-Trp^6 ]LHRH on day zero. This preparation of microcapsules provided a controlled release of 25 micrograms [D-Trp^6 ]LHRH per day for 15 consecutive days.\nOn day 14, the microcapsule injected groups received intramuscular injections of lactide/glycolide copolymer microcapsules which had [D-Trp^6 ]LHRH incorporated therein. The ligand-containing microcapsules administered the \"Microcapsules A\" group were prepared and supplied by Debiopharm (Lausanne, Switzerland). […]"}, "[2]": {"system": "single combed White Leghorn hens", "experiment": "Hen-day egg production", "assay_type": "in vivo", "protocol": "During the experiment, two birds were assigned to each cage (12\"×18\"). The hens were maintained in their cages for two weeks prior to the molt. They received a 17 hour light: 7 hour dark photoperiod throughout this phase of the experiment. During this time, the following parameters were measured:(a) body weight (weekly); (b) feed consumption (all hens received a common layer ration, and the feed consumed during this two week period was measured); (C) production records (daily); and (d), total egg weight, egg shell weight, and egg specific gravity (measured on three consecutive days each week). Serum samples were taken once, from 10 randomly selected hens from each treatment group, and saved for future study.\nas §1\nThe hens then received a seven day pre-molt treatment of a 24 hour light, zero hour dark photoperiod. On day 14 of the experiment the photoperiod was then reduced to natural day length for all treatments. Feed was made available ad libitum for all groups except the forced molt group. The forced molt group was deprived of food, but not of water, until a 30% body weight loss occurred (10 days of fasting).\nas §2\nOn day 14, the microcapsule injected groups received intramuscular injections of lactide/glycolide copolymer microcapsules which had [D-Trp^6 ]LHRH incorporated therein. The ligand-containing microcapsules administered the \"Microcapsules A\" group were prepared and supplied by Debiopharm (Lausanne, Switzerland). These microcapsules were prepared by a phase-separation process to produce a free-flowing powder of spherical particles consisting of [D-Trp^6 ]LHRH (2% wt/wt) distributed within a polymeric matrix of 53:47(mol %) poly(DL-lactide-co-glycolide) (98% wt/wt) with an inherent viscosity of 0.7 dl/g. The microcapsules were 50 micrometers or less in diameter. […] Photomicrographs of similar microcapsules are presented in T. W. Redding, et al., Proc. Natl. Acad. Sci. U.S.A., 81, 5845 (Sept. 1984).\nMicrocapsules were suspended in disposable syringes in vehicle containing 2% carboxymethyl cellulose and 1% \"TWEEN 20\" in water. After thoroughly mixing the suspension, aliquots calculated to have released a dose of 25 micrograms/day for 15 consecutive days were injected into the breast muscle of the hens. We weighed the microcapsules directly into disposable 3 ml syringes. The plunger of a plugged syringe containing microcapsules (without vehicle) was pulled back to the 1.5-2 cc mark. The hub of the syringe was then placed against a vortex mixer and the syringe vortexed rapidly for about 20 seconds, or until most of the clumps of microbeads were broken and distributed along the barrel of the syringe. An 18 gauge needle was then attached and 0.7 to 1.0 ml of […] injection vehicle was drawn into the syringe. With the needle in an upward position, the syringe was again placed against a vortex mixer and vortexed rapidly for 20 seconds, or until a suspension of microbeads was formed in the vehicle. […]"}},
  "data": [
    {"substance": "[D-Trp^6 ]LHRH [D-Trp^6 --LHRH]", "values": [
      {"measurement": "MORTALITY: Number of Hens That Died", "setting": "[1]; Evaluated from day 28 to day 94", "value": 0},
      {"measurement": "mortality in words", "setting": "[1]; groups that received the ligand", "value": "no mortality occurred"},
      {"measurement": "HEN-DAY EGG PRODUCTION Reported By Weeks", "setting": "[2]; listed as Day 5", "value": 61.508, "unit": "%"},
      {"measurement": "HEN-DAY EGG PRODUCTION Reported By Weeks", "setting": "[2]; listed as Day 12", "value": 26.984, "unit": "%"},
      {"measurement": "HEN-DAY EGG PRODUCTION Reported By Weeks", "setting": "[2]; listed as Day 17", "value": 4.683, "unit": "%"},
      {"measurement": "HEN-DAY EGG PRODUCTION Reported By Weeks", "setting": "[2]; listed as Day 22", "value": 7.619, "unit": "%"},
      {"measurement": "HEN-DAY EGG PRODUCTION Reported By Weeks", "setting": "[2]; listed as Day 27", "value": 30.000, "unit": "%"},
      {"measurement": "HEN-DAY EGG PRODUCTION Reported By Weeks", "setting": "[2]; listed as Day 33", "value": 58.095, "unit": "%"},
      {"measurement": "HEN-DAY EGG PRODUCTION Reported By Weeks", "setting": "[2]; listed as Day 40", "value": 63.333, "unit": "%"},
      {"measurement": "HEN-DAY EGG PRODUCTION Reported By Weeks", "setting": "[2]; listed as Day 47", "value": 67.143, "unit": "%"},
      {"measurement": "HEN-DAY EGG PRODUCTION Reported By Weeks", "setting": "[2]; listed as Day 54", "value": 76.667, "unit": "%"},
      {"measurement": "HEN-DAY EGG PRODUCTION Reported By Weeks", "setting": "[2]; listed as Day 61", "value": 80.000, "unit": "%"},
      {"measurement": "HEN-DAY EGG PRODUCTION Reported By Weeks", "setting": "[2]; listed as Day 75", "value": 76.667, "unit": "%"},
      {"measurement": "HEN-DAY EGG PRODUCTION Reported By Weeks", "setting": "[2]; listed as Day 82", "value": 73.889, "unit": "%"},
      {"measurement": "HEN-DAY EGG PRODUCTION Reported By Weeks", "setting": "[2]; listed as Day Zero", "value": 63.889, "unit": "%"}
    ]}
  ]
}
